Experimental findings from US8778919B2, “Cyclic anilino—pyridinotriazines” (Janssen Pharmaceutica NV, priority 2005, dated 2014) are described below.

Common to all, as to type: biochemical
One test addresses GSK-3α (Homo sapiens, UniProt P49840). In words: GSK-3 kinase assay (C1), GSK-3α. The settings on record: 1 μM ATP, read-out: C1 Score α. Here is the method: (§1) In vitro GSK-3 assays were performed at room temperature in a 100 μl reaction volume of 25 mM Tris (pH 7.4) containing 10 mM MgCl2.6H2O, 1 mM DTT, 0.1 mg/ml BSA, 5% glycerol, 5.7 ng/μl GSK-3β or 0.25 ng/μl GSK-3α, 5 μM biotinylated CREB peptide, 1 μM ATP, 0.85 μCi/ml ^33P-ATP and a suitable amount of a test compound. After one hour, the reaction was terminated by adding 70 μl of Stop mix (0.1 mM ATP, 5 mg/ml streptavidin coated PVT SPA beads, pH 11.0). The beads were allowed to settle overnight and the radioactivity attached to the beads was counted in a microtiter plate scintillation counter and compared with the results obtained in a control experiment (without the presence of a test compound) in order to determine the percentage of GSK-3 inhibition. The IC50 value, i.e. the concentration (M) of the test compound at which 50% of GSK-3 is inhibited, was calculated from the dose response curve obtained by performing the above-described GSK-3 assay in the presence of different amounts of the test compound. Score 1=pIC50 value<6, Score 2=pIC50 value from 6-7, Score 3=pIC50 value from 7-8, Score 4=pIC50 value>8.

The next test has as its target GSK-3β (Homo sapiens, UniProt P49841). The test is described as follows: GSK-3 kinase assay (C1), GSK-3β. The note with it: 1 μM ATP, read-out: C1 Score β. How it is done: as §1
A further test has as its target CDK1/cyclinB (h) (Homo sapiens, UniProt P06493). The test is described as follows: Kinase profiling C3.2 CDK1/cyclinB human. The note with it: test concentration of 10^−6 M. Here is the method:
(§2) The in vitro inhibition of a panel of kinases was assessed using either the glass-fiber filter technology as described by Davies, S. P. et al., Biochem J. (2000), 351; p. 95-105. In the glass-fiber filter technology the activity of the kinase of interest is measured using an appropriate substrate that is incubated with the aforementioned kinase protein in the presence of (^33P) radiolabeled ATP. (^33P) Phosporylation of the substrate is subsequently measured as radioactivity bound on a glassfiber-filter.
(§3) All kinases are pre-diluted to a 10× working concentration prior to addition into the assay. The composition of the dilution buffer for each kinase is detailed below.
(§4) All substrates are dissolved and diluted to working stocks in de-ionised water, apart from histone H1 that is stored in 10× working stock in 20 mM MOPS pH 7.4.
(§5) In a final reaction volume of 25 μl, CDK1/cyclinB (h) (5-10 mU) is incubated with 8 mM MOPS pH 7.0, 0.2 mM EDTA, 0.1 mg/ml histone H1, 10 mM MgAcetate and [γ-^33P-ATP] (specific activity approx. 500 cpm/pmol, concentration as required). The reaction is initiated by the addition of the MgATP mix. After incubation for 40 minutes at room temperature, the reaction is stopped by the addition of 5 μl of a 3% phosphoric acid solution. 10 μl of the reaction is then spotted onto a P30 filtermat and washed three times for 5 minutes in 75 mM phosphoric acid and once in methanol prior to drying and scintillation counting.

The next test addresses CDK2/cyclinA (h) (Homo sapiens, UniProt P24941). In words: Kinase profiling C3.3 CDK2/cyclinA human. The note with it: test concentration of 10^−6 M. How it is done: as §2, §3, §4
as §5, with “CDK2/cyclinA” for “CDK1/cyclinB”

A further test has as its target CDK2/cyclinE (h) (Homo sapiens, UniProt P24941). The test is described as follows: Kinase profiling C3.4 CDK2/cyclinE human. The note with it: test concentration of 10^−6 M. Here is the method: as §2, §3, §4
as §5, with “CDK2/cyclinE” for “CDK1/cyclinB”

The next test deals with CDK3/cyclinE (h) (Homo sapiens, UniProt Q00526). In words: Kinase profiling C3.5 CDK3/cyclinE human. The settings on record: test concentration of 10^−6 M. How it is done:
as §2, §3, §4
as §5, with “CDK3/cyclinE” for “CDK1/cyclinB”

A further test deals with CDK5/p35 human (Homo sapiens, UniProt Q00535). The test is described as follows: Kinase profiling C3.6 CDK5/p35 human. The settings on record: CDK5/p35, test concentration of 10^−6 M. Here is the method: as §2, §3, §4
as §5, with “CDK5/p35 human” for “CDK1/cyclinB (h)”

Another test addresses CDK6/cyclinD3 human (Homo sapiens, UniProt Q00534). In words: Kinase profiling C3.7 CDK6/cyclinD3 human. The note with it: CDK6/cyclinD3, test concentration of 10^−6 M. Here is the method:
as §2, §3, §4
as §5, with “CDK6/cyclinD3 human” for “CDK1/cyclinB (h)”

Another test addresses CDK7/cyclinH/MAT1 (h) (Homo sapiens, UniProt P50613). The test is described as follows: Kinase profiling C3.8 CDK7/cyclinH/MAT1 human. The note with it: CDK7/cyclinH/MAT1, test concentration of 10^−6 M. Here is the method: as §2, §3, §4
as §5, with “CDK7/cyclinH/MAT1” for “CDK1/cyclinB”, “500 μM peptide,” for “0.1 mg/ml histone H1,”

Chain of CDK6/cyclinD3 human (Q00534 whole entry): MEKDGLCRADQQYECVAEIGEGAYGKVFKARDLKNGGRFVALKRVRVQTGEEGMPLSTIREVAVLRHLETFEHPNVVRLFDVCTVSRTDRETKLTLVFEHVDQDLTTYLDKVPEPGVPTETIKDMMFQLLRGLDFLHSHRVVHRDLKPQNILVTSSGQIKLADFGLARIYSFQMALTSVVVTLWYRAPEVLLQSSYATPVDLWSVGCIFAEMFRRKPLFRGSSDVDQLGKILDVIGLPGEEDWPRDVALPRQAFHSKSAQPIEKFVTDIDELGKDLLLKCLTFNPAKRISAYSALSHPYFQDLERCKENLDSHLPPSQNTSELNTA
Chain of CDK6/cyclinD3 human (P30281 whole entry partner): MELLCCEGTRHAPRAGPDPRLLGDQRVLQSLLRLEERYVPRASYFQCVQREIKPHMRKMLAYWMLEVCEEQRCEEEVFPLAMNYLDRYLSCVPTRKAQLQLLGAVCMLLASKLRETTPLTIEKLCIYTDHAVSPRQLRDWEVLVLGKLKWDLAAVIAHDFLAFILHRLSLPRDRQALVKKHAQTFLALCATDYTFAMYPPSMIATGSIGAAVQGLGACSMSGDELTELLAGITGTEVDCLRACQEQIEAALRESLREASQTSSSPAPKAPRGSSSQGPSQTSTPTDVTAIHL
Chain of GSK-3α (P49840 whole entry, species assumed): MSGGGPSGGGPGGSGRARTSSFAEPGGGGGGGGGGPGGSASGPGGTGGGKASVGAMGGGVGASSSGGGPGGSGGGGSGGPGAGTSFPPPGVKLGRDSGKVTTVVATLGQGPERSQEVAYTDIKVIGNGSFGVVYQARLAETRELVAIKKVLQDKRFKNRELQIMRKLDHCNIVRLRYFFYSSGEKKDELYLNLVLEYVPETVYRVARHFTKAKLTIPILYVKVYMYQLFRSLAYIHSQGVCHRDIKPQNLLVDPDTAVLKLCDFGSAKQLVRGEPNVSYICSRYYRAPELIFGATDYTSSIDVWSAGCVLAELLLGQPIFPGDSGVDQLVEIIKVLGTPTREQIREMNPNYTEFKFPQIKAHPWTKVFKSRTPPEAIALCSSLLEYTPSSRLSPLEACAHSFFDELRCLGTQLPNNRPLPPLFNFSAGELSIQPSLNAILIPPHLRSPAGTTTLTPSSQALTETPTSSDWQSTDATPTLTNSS
Chain of CDK7/cyclinH/MAT1 (h) (P50613 whole entry): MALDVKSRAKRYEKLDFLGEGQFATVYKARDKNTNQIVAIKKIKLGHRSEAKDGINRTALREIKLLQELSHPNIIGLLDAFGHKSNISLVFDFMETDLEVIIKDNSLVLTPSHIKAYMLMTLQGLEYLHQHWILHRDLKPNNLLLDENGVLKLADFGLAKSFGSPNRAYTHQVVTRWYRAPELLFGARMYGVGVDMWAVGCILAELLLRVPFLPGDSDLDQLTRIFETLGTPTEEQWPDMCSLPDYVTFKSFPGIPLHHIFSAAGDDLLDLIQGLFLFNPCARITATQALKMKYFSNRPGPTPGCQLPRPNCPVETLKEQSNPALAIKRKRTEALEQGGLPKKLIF
Chain of CDK7/cyclinH/MAT1 (h) (P51946 whole entry partner): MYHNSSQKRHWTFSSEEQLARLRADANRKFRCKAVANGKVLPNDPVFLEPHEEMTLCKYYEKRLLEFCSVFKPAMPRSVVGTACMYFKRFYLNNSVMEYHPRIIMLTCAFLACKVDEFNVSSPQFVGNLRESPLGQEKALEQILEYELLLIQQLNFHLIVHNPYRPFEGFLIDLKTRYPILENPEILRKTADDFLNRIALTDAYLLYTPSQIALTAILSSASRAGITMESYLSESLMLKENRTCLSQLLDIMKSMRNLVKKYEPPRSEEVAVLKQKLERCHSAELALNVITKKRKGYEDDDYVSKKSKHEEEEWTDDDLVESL
Chain of CDK7/cyclinH/MAT1 (h) (P51948 whole entry partner): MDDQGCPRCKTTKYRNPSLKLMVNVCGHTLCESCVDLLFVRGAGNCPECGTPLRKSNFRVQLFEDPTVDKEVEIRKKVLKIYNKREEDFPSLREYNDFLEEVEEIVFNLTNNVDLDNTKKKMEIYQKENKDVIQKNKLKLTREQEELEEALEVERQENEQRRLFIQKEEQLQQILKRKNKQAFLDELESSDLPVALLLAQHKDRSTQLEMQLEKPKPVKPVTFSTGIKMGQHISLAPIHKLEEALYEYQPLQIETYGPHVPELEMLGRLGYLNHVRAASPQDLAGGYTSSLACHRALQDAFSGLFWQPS
Chain of CDK5/p35 human (Q00535 whole entry): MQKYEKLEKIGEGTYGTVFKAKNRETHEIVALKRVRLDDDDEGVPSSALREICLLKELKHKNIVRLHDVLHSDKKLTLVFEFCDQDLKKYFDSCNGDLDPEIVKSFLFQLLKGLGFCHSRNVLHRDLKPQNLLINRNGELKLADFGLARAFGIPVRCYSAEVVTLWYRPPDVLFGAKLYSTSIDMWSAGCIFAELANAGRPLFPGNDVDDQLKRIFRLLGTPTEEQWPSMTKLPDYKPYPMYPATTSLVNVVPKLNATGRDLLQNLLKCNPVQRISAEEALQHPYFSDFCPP
Chain of CDK5/p35 human (Q15078 whole entry partner): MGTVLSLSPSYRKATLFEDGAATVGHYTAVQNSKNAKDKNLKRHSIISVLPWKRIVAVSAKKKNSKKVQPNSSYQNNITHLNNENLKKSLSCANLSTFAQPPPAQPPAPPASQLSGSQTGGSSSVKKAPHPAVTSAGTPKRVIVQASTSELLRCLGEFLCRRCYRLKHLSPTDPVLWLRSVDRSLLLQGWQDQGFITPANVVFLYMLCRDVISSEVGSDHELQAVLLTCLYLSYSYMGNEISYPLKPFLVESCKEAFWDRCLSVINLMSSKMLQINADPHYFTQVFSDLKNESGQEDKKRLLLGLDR
Chain of GSK-3β (P49841 whole entry, species assumed): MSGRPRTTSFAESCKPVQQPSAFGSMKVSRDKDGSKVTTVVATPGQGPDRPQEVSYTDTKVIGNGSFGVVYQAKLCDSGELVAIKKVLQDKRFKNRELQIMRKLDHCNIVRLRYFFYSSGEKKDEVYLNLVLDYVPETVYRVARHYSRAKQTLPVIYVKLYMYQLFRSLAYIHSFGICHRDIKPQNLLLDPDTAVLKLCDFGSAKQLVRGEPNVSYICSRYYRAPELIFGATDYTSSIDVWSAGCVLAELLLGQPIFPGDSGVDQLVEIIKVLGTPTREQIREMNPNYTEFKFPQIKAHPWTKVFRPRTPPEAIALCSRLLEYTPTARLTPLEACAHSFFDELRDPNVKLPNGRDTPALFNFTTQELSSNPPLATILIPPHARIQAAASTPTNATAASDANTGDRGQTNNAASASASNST
Chain of CDK1/cyclinB (h) (P06493 whole entry): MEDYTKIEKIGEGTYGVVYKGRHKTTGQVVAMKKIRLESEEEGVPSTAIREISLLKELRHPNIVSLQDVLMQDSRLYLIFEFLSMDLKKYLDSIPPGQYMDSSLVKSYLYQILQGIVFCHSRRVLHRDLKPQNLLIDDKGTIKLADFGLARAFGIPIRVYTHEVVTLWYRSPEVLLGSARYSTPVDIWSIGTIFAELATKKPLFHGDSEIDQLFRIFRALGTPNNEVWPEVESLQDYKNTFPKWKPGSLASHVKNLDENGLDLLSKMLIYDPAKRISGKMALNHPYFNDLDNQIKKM
Chain of CDK1/cyclinB (h) (P14635 whole entry partner): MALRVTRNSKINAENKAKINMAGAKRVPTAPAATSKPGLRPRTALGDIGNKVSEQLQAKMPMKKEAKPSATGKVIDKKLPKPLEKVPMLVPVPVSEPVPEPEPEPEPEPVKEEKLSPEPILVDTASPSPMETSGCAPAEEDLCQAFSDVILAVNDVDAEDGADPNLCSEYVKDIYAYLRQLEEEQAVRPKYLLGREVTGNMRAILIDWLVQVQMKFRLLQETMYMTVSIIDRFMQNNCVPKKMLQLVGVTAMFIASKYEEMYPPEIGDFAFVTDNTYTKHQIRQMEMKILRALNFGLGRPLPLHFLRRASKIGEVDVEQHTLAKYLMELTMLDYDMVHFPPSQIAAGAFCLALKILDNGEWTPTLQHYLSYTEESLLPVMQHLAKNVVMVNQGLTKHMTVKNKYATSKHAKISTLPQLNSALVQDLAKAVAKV

Take `O=C1NCCNc2cc(ccn2)-c2ncnc(n2)Nc2cccc(c2)CN2CCC[C@H]12` [Compound 18]: the IC50 at GSK-3α and on GSK-3β was 0.1 to 1 µM in each case. In addition, the C3.2 score on CDK1/cyclinB (h) is given as 3 (Score 3 = 60-80% inhibition). Further, the C3.3 score on CDK2/cyclinA (h) is 4 (Score 4 = >80% inhibition). At CDK2/cyclinE (h), the C3.4 score is on record as 4 (Score 4 = >80% inhibition). Moreover, the C3.5 score at CDK3/cyclinE (h) is 3 (Score 3 = 60-80% inhibition). The C3.6 score at CDK5/p35 human was 2 (Score 2 = 30-60% inhibition). Moreover, the C3.7 score on CDK6/cyclinD3 human is 1 (Score 1 = 10-30% inhibition). For the same compound, the C3.8 score at CDK7/cyclinH/MAT1 (h) is 2 (Score 2 = 30-60% inhibition).
Regarding `CN1CCC(=O)NCCCc2cc(ccn2)-c2ncnc(n2)Nc2cc(Cl)cc(c2)C1` [Compound 32], the IC50 at GSK-3α and at GSK-3β was 0.01 to 0.1 µM each time. On CDK1/cyclinB (h), the C3.2 score is recorded as 4 (Score 4 = >80% inhibition). Moreover, the C3.3 score on CDK2/cyclinA (h) is 4 (Score 4 = >80% inhibition). Also, at CDK2/cyclinE (h), the C3.4 score was 4 (Score 4 = >80% inhibition). Also, the C3.5 score on CDK3/cyclinE (h) is 3 (Score 3 = 60-80% inhibition). Besides, the C3.6 score on CDK5/p35 human is listed as 4 (Score 4 = >80% inhibition). Moreover, the C3.7 score at CDK6/cyclinD3 human was 1 (Score 1 = 10-30% inhibition). Besides, the C3.8 score at CDK7/cyclinH/MAT1 (h) was 2 (Score 2 = 30-60% inhibition).
On to `CN1Cc2cccc(c2)Nc2ncnc(n2)-c2ccnc(c2)NCCCNC(=O)CCN2CCC1CC2` [Compound 23], for which the IC50 at GSK-3α and at GSK-3β was 0.1 to 1 µM in each case. For the same compound, the C3.2 score on CDK1/cyclinB (h) is listed as 2 (Score 2 = 30-60% inhibition). At CDK2/cyclinA (h), the C3.3 score is on record as 3 (Score 3 = 60-80% inhibition). The C3.4 score on CDK2/cyclinE (h) is on record as 4 (Score 4 = >80% inhibition). The C3.5 score at CDK3/cyclinE (h) was 3 (Score 3 = 60-80% inhibition). The C3.6 score at CDK5/p35 human was 2 (Score 2 = 30-60% inhibition). Moreover, at CDK6/cyclinD3 human, the C3.7 score is 1 (Score 1 = 10-30% inhibition). For the same compound, the C3.8 score at CDK7/cyclinH/MAT1 (h) is on record as 1 (Score 1 = 10-30% inhibition).
With `O=C1CCN2CCN(CC2)Cc2cc(Cl)cc(c2)Nc2ncnc(n2)-c2ccnc(c2)CCCN1` [Compound 37], the IC50 on GSK-3α and on GSK-3β was 0.01 to 0.1 µM each time. For the same compound, the C3.2 score on CDK1/cyclinB (h) is reported as 4 (Score 4 = >80% inhibition). Also, on CDK2/cyclinA (h), the C3.3 score is given as 4 (Score 4 = >80% inhibition). In addition, the C3.4 score at CDK2/cyclinE (h) was 4 (Score 4 = >80% inhibition). On CDK3/cyclinE (h), the C3.5 score is on record as 4 (Score 4 = >80% inhibition). Also, the C3.6 score at CDK5/p35 human is recorded as 4 (Score 4 = >80% inhibition). In addition, the C3.7 score on CDK6/cyclinD3 human is 2 (Score 2 = 30-60% inhibition). In addition, the C3.8 score on CDK7/cyclinH/MAT1 (h) is given as 3 (Score 3 = 60-80% inhibition).
Take `O=C1NCCc2cccc(c2)Nc2ncnc(n2)-c2ccnc(c2)CCCN2CCCC1C2` (stereo not drawn) [Compound 26]: the IC50 on GSK-3α and at GSK-3β was 0.01 to 0.1 µM each time. Moreover, the C3.2 score on CDK1/cyclinB (h) was 1 (Score 1 = 10-30% inhibition). Besides, the C3.3 score on CDK2/cyclinA (h) is 3 (Score 3 = 60-80% inhibition). Moreover, the C3.4 score on CDK2/cyclinE (h) is given as 4 (Score 4 = >80% inhibition). Further, on CDK3/cyclinE (h), the C3.5 score is recorded as 3 (Score 3 = 60-80% inhibition). The C3.6 score at CDK5/p35 human is 2 (Score 2 = 30-60% inhibition). Besides, the C3.7 score at CDK6/cyclinD3 human is on record as 1 (Score 1 = 10-30% inhibition). The C3.8 score at CDK7/cyclinH/MAT1 (h) is 2 (Score 2 = 30-60% inhibition).
With `O=C1CC2CCN(CCCc3cc(ccn3)-c3ncnc(n3)Nc3cccc(c3)CCN1)CC2` [Compound 27], the IC50 on GSK-3α and on GSK-3β was 0.1 to 1 µM in each case. For the same compound, the C3.2 score at CDK1/cyclinB (h) is on record as 2 (Score 2 = 30-60% inhibition). For the same compound, the C3.3 score at CDK2/cyclinA (h) is recorded as 3 (Score 3 = 60-80% inhibition). Also, the C3.4 score at CDK2/cyclinE (h) was 2 (Score 2 = 30-60% inhibition). On CDK3/cyclinE (h), the C3.5 score is listed as 1 (Score 1 = 10-30% inhibition). The C3.6 score on CDK5/p35 human is given as 2 (Score 2 = 30-60% inhibition). Further, the C3.7 score on CDK6/cyclinD3 human is listed as 1 (Score 1 = 10-30% inhibition). At CDK7/cyclinH/MAT1 (h), the C3.8 score is reported as 1 (Score 1 = 10-30% inhibition).
As for `O=C1CCN2CCN(CC2)Cc2cccc(c2)Nc2ncnc(n2)-c2ccnc(c2)NCCN1` [Compound 19], the IC50 on GSK-3α fell in the range of 0.1 to 1 µM; on GSK-3β, 0.01 to 0.1 µM. The C3.2 score on CDK1/cyclinB (h) is on record as 4 (Score 4 = >80% inhibition). In addition, on CDK2/cyclinA (h), the C3.3 score is on record as 4 (Score 4 = >80% inhibition). Besides, the C3.4 score on CDK2/cyclinE (h) is recorded as 4 (Score 4 = >80% inhibition). Besides, the C3.5 score on CDK3/cyclinE (h) is 4 (Score 4 = >80% inhibition). For the same compound, on CDK5/p35 human, the C3.6 score is 3 (Score 3 = 60-80% inhibition). Besides, the C3.7 score on CDK6/cyclinD3 human is 2 (Score 2 = 30-60% inhibition). Further, at CDK7/cyclinH/MAT1 (h), the C3.8 score is recorded as 2 (Score 2 = 30-60% inhibition).
